Row | melting point [°C] | SMILES
1 | 112 to 117 | CCOC(=O)c1ccc(NCCC(c2ccc(Cl)cc2)c2ccc(Cl)cc2)cc1
2 | 37 | CCCCc1ccc(OC(=O)c2ccc(-c3ccc(CC(CC)CCCC)cc3)cc2)c(C#N)c1 (centres undefined)
3 | 79.1 to 79.2 | CC1OC(=O)N2c3ccc(OCCCC(F)(F)F)cc3CCC12 (centres undefined)
4 | 99 to 101 | CC(C)(C)OC(=O)N1CC(NC(=O)CNC(=NC(=O)OCc2ccc([N+](=O)[O-])cc2)NC(=O)OCc2ccc([N+](=O)[O-])cc2)C1
5 | 66 to 75 | CCOC(=O)c1cc2ccccc2nc1C(Cl)(Cl)Cl
6 | 92 to 94 | COc1c(F)cc(Br)c(C(=O)O)c1F
7 | 151 | N#CCCc1cccc2ccn(Cc3cccc(/C=C/c4ccc5ccc(Cl)cc5n4)c3)c12
8 | 190 | CC(C(=O)O)c1ccc2oc(-c3ccc(Cl)cc3)nc2c1 (centres undefined)
9 | 124 to 125 | CCOC(=O)COc1ccccc1Cc1ccc2ccccc2c1O
10 | 190 to 191 | O=C(CCNCc1cc(F)cc(F)c1)Nc1cccc2c1C(=O)c1c(NC(=O)CCNCc3cc(F)cc(F)c3)cccc1C2=O
11 | 78 to 81 | O=C(O)C(O)CCCCCc1ccc(Cl)cc1 (centres undefined)
12 | 62 to 63.5 | CN(O)C(=O)c1ccc(CCCCc2ccccc2)cc1
13 | 70 | C=CC(=O)OCCCOc1ccc(-c2ccc(C#N)cc2)cc1
14 | 255 to 257 | CCc1cc2c(=O)n3cc(C(=O)O)ccc3nc2s1
15 | 91 to 92 | COC(=O)c1ccc(CNC(=O)OCc2ccccc2)cc1O
16 | 224 to 226 | COc1c(C(=O)O)cccc1[N+](=O)[O-]
17 | 69 to 70 | COC(=O)CCCCCNC(=O)c1cccc(OC)c1O
18 | 52.3 to 53.3 | COc1ccc(C(=O)CC(=O)C(C)(C)C)cc1OC
19 | 186 to 188 | CCCCOC(=O)c1cc(OC)c(Cc2cnc(N)nc2N)c(OC)c1
20 | 77.5 to 79.5 | CCC(=O)C(=C1NCCCS1)[N+](=O)[O-]
21 | 188 | COc1ccccc1C(Nc1cc(Cl)c(Cl)cc1Cl)C(=O)O (centres undefined)
22 | 122 to 125 | O=C1c2ccccc2C(=O)N1CCCCc1ccc(S(=O)(=O)Cl)cc1

Row | melting point [°C] | SMILES
23 | 151 to 153 | CCCC(C)(Oc1ccccc1)C(=O)OC1CC(O)C=C2C=CC(C)C(CCC3CC(O)CC(=O)O3)C21 (mixture of isomers)
24 | 225 to 226 | Cc1ccc(S(=O)(=O)NC(CN)C(=O)O)cc1 (centres undefined)
25 | 111 to 113 | CCC1(CO)CCCN2CCC3=c4ccccc4=NC3=C21 (centres undefined)
26 | 165 to 167 | CNC(=O)N(O)Cc1ccc(Br)cc1
27 | 195 to 196 | O=C(O)Cc1cc2c(c(C(=O)O)c1)NC(C(F)(F)F)CC2 (centres undefined)
28 | 114 to 116 | C=CCN(c1ccccc1)c1cc(C(N)=O)c(C(=O)O)cc1N(CC=C)c1ccccc1
29 | 155 to 165 | CC1=C(CN2CC(C(=O)O)C2)CCc2cc(OCc3ccc(C(F)(F)F)cc3C(F)(F)F)ccc21
30 | 102 to 105 | CC(=O)N1CCN(C(=O)C2(C#N)Nc3cc(C)c(-c4ccccc4)c(N4CC[C@H](N(C)C)C4)c3O2)CC1 (some centres undefined)
31 | 236 to 238 | Cc1nc(-c2cccc(C(=O)O)c2)nn1-c1cccc(F)c1
32 | 242 to 244 | O=C(O)c1cn(-c2ccc(F)cc2F)c2nc(Cl)c(F)cc2c1=O
33 | 26 to 27 | CCCCCCCCCCCCCCOc1cccc(C(=O)Cl)c1
34 | 204 to 205 | CC(C)(C)Sc1c(CC(C)(C)C(=O)O)n(Cc2ccc(Cl)cc2)c2ccc(OCc3cccs3)cc12
35 | 132 to 133 | NC(=O)[C@H]1CCC[C@H]1C(=O)O (relative stereo)
36 | 169 to 173 | CC(C)(Cc1ccc(Br)cc1)C(C(=O)O)C(=O)O
37 | 142 to 144 | C[C@H](NC(=O)c1c(F)cccc1[N+](=O)[O-])C(=O)O
38 | 114 to 116 | NC(=O)N(O)Cc1ccc(Oc2ccccc2)s1
39 | 140 to 141 | CC(=O)Oc1ccc2c(=O)c(C#N)c(C)oc2c1
40 | 87 to 92 | CCCCN(CC(O)C(Cc1ccccc1)NC(=O)C(C)CS(C)(=O)=O)S(=O)(=O)c1ccc(OC)cc1 (centres undefined)
41 | 118 to 120 | CCC(CC)(CO)Nc1nc(-c2ccc(C#N)cc2)cs1
42 | 73 | N#CCCN(CCC#N)CC(=O)O
43 | 184 to 185 | CC1=C(C(=O)OC(C)C)C(c2cccc([N+](=O)[O-])c2)n2c(cc(=O)n2Cc2ccccc2)N1 (centres undefined)

Further lines, the molecule ahead of its results:

Row | SMILES | melting point [°C]
44 | C(=Cc1ccccc1)CN1CCN(C(c2ccccc2)c2ccccc2)CC1 | 110
45 | Cc1cc(C)n(-c2nc(Nc3ccccc3Cl)c3ccccc3n2)n1 | 210 to 217
46 | COc1cccc2c(Nc3ccccc3C)nc(Nc3ccccc3C)nc12 | 185 to 187
47 | COc1cc(C(=O)NS(C)(=O)=O)cc(OC)c1-c1ccc(C[C@H](NC(=O)c2c(Cl)cccc2Cl)C(=O)O)cc1 | 277 to 278
48 | COC(=O)c1nc(SC(F)(F)F)c(N)nc1N | 151 to 155
49 | N#CC(=Cc1ccc(Cl)cc1)c1c(Cl)cc(N2N=CCNC2=O)cc1Cl | 83 to 85
50 | Cn1nc(N)c2c(=O)n(-c3ccccc3)c3ncccc3c21 | > 300
51 | CC1(C)CN2C(=O)c3ncccc3C(O)(c3ccc(Cl)cc3)C2=N1 (centres undefined) | 257 to 260
52 | CN(c1ccccc1)c1nc(N2CCOCC2)nc(-n2ccnc2)n1 | 119 to 120
53 | O=C(Nc1cccc(-n2nc(C(F)(F)F)cc2C(F)(F)F)c1)c1cc([N+](=O)[O-])ccc1Cl | 147 to 152
54 | COC(=O)CCCc1cc2cc(Cl)ccc2n1S(=O)(=O)c1ccc2ccccc2c1 | 116 to 118
55 | Nc1cccc(C(=O)Nc2ccc(C(=O)N3CCCc4ccccc43)cc2)c1 | 206
56 | CN1CCN(c2cccc3ccc(C(=O)c4ccccc4)cc23)CC1 | 124
57 | COc1ccc(-c2cnc(N)c(Sc3ccc(C)cc3)n2)cc1 | 107 to 110
58 | CCOC1CCN(C(=O)c2cc(-c3ccccc3)c(=O)n3ccc4ccsc4c23)C1 (centres undefined) | 167 to 170
59 | CC(C)(C)n1c(=O)[nH]c2ccccc2c1=O | 218 to 220
60 | Cc1oc(-c2ccccc2)nc1COc1ccc(COc2ccc(C(=O)c3ccccc3)c(O)c2)cc1 | 160 to 161
61 | NS(=O)(=O)c1ccc(Cl)c(NC(=O)c2cnn3c(C(F)F)cc(-c4ccc(C(F)(F)F)cc4)nc23)c1 | 286
62 | CSCc1noc(C(C)c2ccc(-c3ccccc3)c(F)c2)n1 (centres undefined) | 55.5 to 56

Row | SMILES | melting point [°C]
63 | Cc1[nH]c2ccc(C(=O)c3ccccc3)cc2c1C=O | 227 to 230
64 | NC1=Nc2ccc(-c3cccc(Cl)c3)cc2C12CCCCC2 | 118 to 120
65 | CC(C)=C1CC(=O)N(c2cc(F)c(C#N)cc2F)C1=O | 135
66 | Fc1cccc(-c2ncc(-c3cnc(-c4ccccc4)nc3)[nH]2)c1 | 221
67 | CSc1nc(-c2ccc(F)cc2)c(-c2ccnc(OC(C)C)c2)[nH]1 | 141
68 | OCc1cn(C(c2ccccc2)(c2ccccc2)c2ccccc2)cn1 | 224 to 227
69 | CS(=O)c1c(C(=O)c2cnoc2C2CC2)ccc(Cl)c1Cl (centres undefined) | 110 to 112
70 | N#Cc1c(N2CCCC2)cc(-c2ccccc2)c2c1Cc1ccccc1-2 | 210 to 212
71 | O=C(Cc1ccccc1[N+](=O)[O-])c1c(O)c2cccnc2n(-c2ccccc2)c1=O | 194 to 195
72 | O=C(Cl)N1CC(Oc2ccccc2Cl)C1 | 80 to 82
73 | N#Cc1cc(=O)n(-c2c(Cl)cc(C(F)(F)F)cc2Cl)[nH]1 | 198 to 201
74 | CC(C)(C)OC(=O)COc1ccc(NC(=O)NC(=O)c2ccc(C(N)=S)cc2)cc1 | 248
75 | COC(=O)[C@@H]1CCCN1c1ccc(C)c([N+](=O)[O-])c1O | 111 to 114
76 | Oc1c2c(nn1-c1ccccn1)CCCc1ccccc1-2 | 80 to 81
77 | CCOC(=O)/C=C/c1ccc(-c2ccc(O)c(C34CC5CC(CC(C5)C3)C4)c2)c(Cl)c1 | 216 to 218
78 | CCC1CCc2c(sc3cc(NC(C)=O)ccc3c2=O)C1 (centres undefined) | 243
79 | COc1ccc(-c2ccc(C(C)=NOCCO)cc2)cc1 | 164 to 166
80 | COc1ccc(CN2C(=O)C3(COc4cc5c(cc43)CCO5)c3ccccc32)cc1 (centres undefined) | 120 to 121
81 | O=c1c(Cl)c(OCc2ccc(Cl)cc2)cnn1-c1ccc(Cl)cn1 | 167 to 169

Row | SMILES | melting point [°C]
82 | CCN(CC1CCN(C(=O)NC)CC1)C(C)Cc1ccc(OC)cc1 (centres undefined) | 97 to 98
83 | O=C(NC1CCNC1=O)c1cccc(-c2cccc3oc(Cc4cccc(C(F)(F)F)c4)cc23)c1 (centres undefined) | 110 to 120
84 | CC1C(N(C)C)CCN2c3ccccc3Cc3ccccc3C12 (centres undefined) | 174 to 176
85 | CC(C)(C)C(=O)ON1C(C)(C)CC(OC(=O)c2ccccc2)CC1(C)C | 107 to 110
86 | CC(C)Cn1c(CO)nc2c(N)nc3cccnc3c21 | 226 to 228
87 | N#CC1c2ccccc2Oc2ccccc21 | 97 to 98
88 | COc1ccccc1P1(=O)c2ccccc2CN1c1ccccc1 (centres undefined) | 189 to 191
89 | CC(C)(CO)NS(=O)(=O)c1cccc(NC(=O)c2cnn3c(C(F)(F)F)cc(-c4ccc(C(F)(F)F)c(Cl)c4)nc23)c1 | 251
90 | O=c1[nH]c2ccc(S(=O)(=O)NCCBr)cc2[nH]c1=O | 261 to 266
91 | CNC(=O)c1ccc(C=C2CC3CCC(C2)N3)cc1 | 164 to 166
92 | COC(=O)c1nc(Cl)cnc1N=S(C)C | 167 to 169
93 | O=[N+]([O-])c1ccc(OCc2cccc(F)c2)cc1 | 104 to 105
94 | O=C1Nc2cccnc2Oc2ccccc21 | 268 to 270
95 | COc1ccc2c(c1)c(Cc1nc(-c3ccc(Br)cc3)cs1)c(C)n2C(=O)c1ccc(Cl)cc1 | 177 to 180
96 | CC(C)n1nc(-c2nc(C3=CCCN(C)C3)c(N)nc2-c2ccccc2)ccc1=O | 191 to 193
97 | CCOc1ccc2c(c1)C(C)(c1ccccc1Cl)C(=O)N2S(=O)(=O)c1ccc(N)cc1OC (centres undefined) | 211
98 | Cn1c(=O)c2c(-c3ccccc3)n(-c3cc([N+](=O)[O-])ccc3N)cc2n(C)c1=O | > 300
99 | Cc1nn(C)c(S(N)(=O)=O)c1C(=O)OC(C)C | 120 to 122
